Assay results published in ChEMBL document CHEMBL5705908, “Structural and chemical insights into the covalent-allosteric inhibition of the protein kinase Akt” (Chem Sci, 2019).
Active and inactive are the calls of the source. No cut-off for these calls is given here.

Assays:
KU-19-19 = assay: Antiproliferative activity against human KU-19-19 cells assessed as reduction in cell viability incubated for 5 days by celltiter-glo assay; format: functional, cell-based; settings: KU-19-19, 120 h
[1] = target: RAC-alpha serine/threonine-protein kinase (Homo sapiens) (UniProt P31749); assay: Covalent-allosteric inhibition of full length N-terminal his6-tagged AKT (2 to 446 residues) (unknown origin) expressed in Spodoptera frugiperda Sf9 cells at 100 uM incubated for 1 hr by Mass spectrometry analysis
[2] = target: RAC-alpha serine/threonine-protein kinase (Homo sapiens) (UniProt P31749); assay: Covalent-allosteric inhibition of full length N-terminal his6-tagged AKT (2 to 446 residues) (unknown origin) expressed in Spodoptera frugiperda Sf9 cells assessed as kinact
[3] = target: RAC-alpha serine/threonine-protein kinase (Homo sapiens) (UniProt P31749); assay: Covalent-allosteric inhibition of full length N-terminal his6-tagged AKT (2 to 446 residues) (unknown origin) expressed in Spodoptera frugiperda Sf9 cells assessed as kinact/ki ratio
AN3-CA = assay: Antiproliferative activity against human AN3-CA cells assessed as reduction in cell viability incubated for 5 days by celltiter-glo assay; format: functional, cell-based; settings: 120 h
MCF7 = assay: Antiproliferative activity against human MCF7 cells assessed as reduction in cell viability incubated for 5 days by celltiter-glo assay; format: functional, cell-based; settings: MCF7, 120 h
BT-474 = assay: Antiproliferative activity against human BT-474 cells assessed as reduction in cell viability incubated for 5 days by celltiter-glo assay; format: functional, cell-based; settings: BT-474, 120 h

Chain of RAC-alpha serine/threonine-protein kinase (Homo sapiens) (P31749 whole entry, the tested form may be a part): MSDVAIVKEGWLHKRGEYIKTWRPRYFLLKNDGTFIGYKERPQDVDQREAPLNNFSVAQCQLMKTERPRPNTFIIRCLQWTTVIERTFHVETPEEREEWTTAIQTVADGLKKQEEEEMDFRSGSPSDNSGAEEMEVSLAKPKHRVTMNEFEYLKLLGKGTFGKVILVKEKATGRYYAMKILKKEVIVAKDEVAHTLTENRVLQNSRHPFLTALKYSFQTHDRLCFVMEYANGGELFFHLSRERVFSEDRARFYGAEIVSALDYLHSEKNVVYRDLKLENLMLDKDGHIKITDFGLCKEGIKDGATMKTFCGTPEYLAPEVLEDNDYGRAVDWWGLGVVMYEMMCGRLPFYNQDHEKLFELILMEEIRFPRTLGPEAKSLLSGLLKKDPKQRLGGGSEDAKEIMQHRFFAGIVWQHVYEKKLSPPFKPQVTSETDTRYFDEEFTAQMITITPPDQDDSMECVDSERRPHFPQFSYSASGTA

Compound	Kinact [2]	Ratio [3]	EC50 (KU-19-19)	further results
C=CC(=O)Nc1cccc(C(=O)NC2CCN(Cc3ccc(-c4nc5cc[nH]c(=O)c5cc4-c4ccccc4)cc3)CC2)c1	–	–	14.9 µM	–
C=CC(=O)Nc1ccc2[nH]c(=O)n(C3CCN(Cc4ccc(-c5nc6cc[nH]c(=O)c6cc5-c5ccccc5)cc4)CC3)c2c1	–	–	–	inhibition [1]: Active
C=CC(=O)Nc1ccc(C(=O)NC2CCN(Cc3ccc(-c4nc5cc[nH]c(=O)c5cc4-c4ccccc4)cc3)CC2)s1	0.088 min⁻¹	0.038 µM⁻¹ s⁻¹	–	–
NC1(C(=O)N[C@@H](CCO)c2ccc(Cl)cc2)CCN(c2nc[nH]c3nccc2-3)CC1 [CAPIVASERTIB]	–	–	20.9 µM	–
CC(C)NC[C@@H](C(=O)N1CCN(c2ncnc3c2[C@H](C)C[C@H]3O)CC1)c1ccc(Cl)cc1 [IPATASERTIB]	–	–	24 µM	–
C=CC(=O)Nc1ccc2c(c1)n(C1CCN(Cc3ccc(-c4nc5cc[nH]c(=O)c5cc4-c4ccccc4)cc3)CC1)c(=O)n2C	0.121 min⁻¹	0.19 µM⁻¹ s⁻¹	–	inhibition [1]: Active
CN(C)C/C=C/C(=O)Nc1ccc2[nH]c(=O)n(C3CCN(Cc4ccc(-c5nc6cc[nH]c(=O)c6cc5-c5ccccc5)cc4)CC3)c2c1	0.05 min⁻¹	0.025 µM⁻¹ s⁻¹	–	EC50 (AN3-CA): 15.3 µM; EC50 (MCF7): 20.3 µM; EC50 (BT-474): 12 µM
C=CC(=O)Nc1cccc(CNC2CCN(Cc3ccc(-c4nc5cc[nH]c(=O)c5cc4-c4ccccc4)cc3)CC2)c1	0.071 min⁻¹	0.004 µM⁻¹ s⁻¹	–	–

Further lines, with some results ahead:

Kinact [2]	Ratio [3]	Compound	EC50 (KU-19-19)	further results
0.085 min⁻¹	0.014 µM⁻¹ s⁻¹	C=CC(=O)Nc1ccc(C(=O)NC2CCN(Cc3ccc(-c4nc5cc[nH]c(=O)c5cc4-c4ccccc4)cc3)CC2)c(F)c1	–	–
0.042 min⁻¹	0.002 µM⁻¹ s⁻¹	C=CC(=O)Nc1ccc(C(=O)NC2CCN(Cc3ccc(-c4nc5cc[nH]c(=O)c5cc4-c4ccccc4)cc3)CC2)cc1	11.3 µM	–
0.078 min⁻¹	0.168 µM⁻¹ s⁻¹	C=CC(=O)Nc1cc(Br)cc(C(=O)NC2CCN(Cc3ccc(-c4nc5cc[nH]c(=O)c5cc4-c4ccccc4)cc3)CC2)c1	–	–
0.138 min⁻¹	0.085 µM⁻¹ s⁻¹	C=CC(=O)Nc1ccccc1C(=O)NC1CCN(Cc2ccc(-c3nc4cc[nH]c(=O)c4cc3-c3ccccc3)cc2)CC1	–	–
